Experimental data taken from ChEMBL document CHEMBL5303573, “Mapping human microbiome drug metabolism by gut bacteria and their genes” (Nature, 2019).

Legend:
Type in all cases: ADME
Design in all cases: dose 2 uM, timepoint 0, 1, 2, 4, 6, 8, 12, 18, 24 hours
Details in all cases: 2 µM
[1] = (§1) The drug is tested on the gut metagenome community of MV06 with ENA study accession number: PRJEB31790 and ENA sample accession number: SAMEA5537487 for biotransformation. The drug concentrations were measured over 9 timepoints collected between 0 and 24 hours of incubation by liquid-chromatography-coupled mass spectrometry (LC–MS)
[2] = as §1, with “MV26” for “MV06”, “SAMEA5537507” for “SAMEA5537487”
[3] = as §1, with “MV12” for “MV06”, “SAMEA5537493” for “SAMEA5537487”
[4] = as §1, with “MV23” for “MV06”, “SAMEA5537504” for “SAMEA5537487”
[5] = as §1, with “MV03” for “MV06”, “SAMEA5537484” for “SAMEA5537487”
[6] = as §1, with “MV11” for “MV06”, “SAMEA5537492” for “SAMEA5537487”
[7] = as §1, with “MV13” for “MV06”, “SAMEA5537494” for “SAMEA5537487”
[8] = as §1, with “MV17” for “MV06”, “SAMEA5537498” for “SAMEA5537487”
[9] = as §1, with “MV28” for “MV06”, “SAMEA5537509” for “SAMEA5537487”
[10] = as §1, with “MV01” for “MV06”, “SAMEA5537482” for “SAMEA5537487”
[11] = as §1, with “MV22” for “MV06”, “SAMEA5537503” for “SAMEA5537487”
[12] = as §1, with “MV18” for “MV06”, “SAMEA5537499” for “SAMEA5537487”
[13] = as §1, with “MV16” for “MV06”, “SAMEA5537497” for “SAMEA5537487”
[14] = as §1, with “MV19” for “MV06”, “SAMEA5537500” for “SAMEA5537487”
[15] = as §1, with “MV10” for “MV06”, “SAMEA5537491” for “SAMEA5537487”
[16] = as §1, with “MV08” for “MV06”, “SAMEA5537489” for “SAMEA5537487”

Bacterial Biotransformation [1]: Compound NOT metabolized
Bacterial Biotransformation [2]: Compound NOT metabolized
Bacterial Biotransformation [3]: Compound NOT metabolized
Bacterial Biotransformation [4]: Compound NOT metabolized
Bacterial Biotransformation [5]: Compound metabolized
Bacterial Biotransformation [6]: Compound NOT metabolized
Bacterial Biotransformation [7]: Compound NOT metabolized
Bacterial Biotransformation [8]: Compound NOT metabolized
Bacterial Biotransformation [9]: Compound NOT metabolized
Bacterial Biotransformation [10]: Compound NOT metabolized
Bacterial Biotransformation [11]: Compound NOT metabolized
Bacterial Biotransformation [12]: Compound NOT metabolized
Bacterial Biotransformation [13]: Compound NOT metabolized
Bacterial Biotransformation [14]: Compound NOT metabolized
Bacterial Biotransformation [15]: Compound metabolized
Bacterial Biotransformation [16]: Compound NOT metabolized
SMILES: C[C@@H]1C[C@H]2[C@@H]3CCC4=CC(=O)C=C[C@]4(C)[C@@]3(F)[C@@H](O)C[C@]2(C)[C@@]1(O)C(=O)CO [DEXAMETHASONE]
